Laboratory results taken from patent US20230295096A1, “PYRAZOLE CARBOXAMIDE COMPOUNDS FOR TREATMENT OF HBV” (ASSEMBLY BIOSCIENCES, INC., priority 2020, published 2023).
Where two headings read alike, the source gives them in different places.

Tested on: HBV
Assay: Viral load production from HepAD38 cells, qPCR of the HBV core sequence in supernatant
Type: cell-based
Settings: HepAD38 cells, 5 days, HBV DNA in supernatant by qPCR, Table 1 ranges, read-out: Activity (viral load lowering EC50)
Summary of the method: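 EC50 and CC50 come from four-parameter logistic fits of supernatant HBV core DNA (TaqMan qPCR, DNA standards, compared with DMSO wells) and of CellTiter-Glo luminescence.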

[1] = Hepatitis B virus, HePAD38, 120 h

Row | Molecule | EC50 [1] | EC50
1 | Cn1nc(C2CC3CN(C(=O)Nc4ncc(C(F)(F)F)s4)CC3C2)c(C(=O)Nc2ccc(F)c(Cl)c2)c1N (stereo not drawn) [Example 127, 5-(5-Amino-4-((3-chloro-4-fluorophenyl)carbamoyl)-1-methyl-1H-pyrazol-3-yl)-N-(5-(trifluoromethyl)thiazol-2-yl)hexahydrocyclopenta[c]pyrrole-2(1H)-carboxamide] | 0.05 to 0.5 µM | –
2 | COCCOCCOCCOCCOCCOCCOCCOCCOC(=O)OCn1cc(C2(O)CC3CC(c4nn(C)c(N)c4C(=O)Nc4ccc(F)c(Cl)c4)CC3C2)c(C(F)(F)F)n1 [Example 158, (4-((2r,3aR,5 s,6aS)-5-(5-amino-4-((3-chloro-4-fluorophenyl)carbamoyl)-1-methyl-1H-pyrazol-3-yl)-2-hydroxyoctahydropentalen-2-yl)-3-(trifluoromethyl)-1H-pyrazol-1-yl)methyl (2,5,8,11,14,17,20,23-octaoxapentacosan-25-yl) carbonate] | < 0.01 µM | –
3 | COC(=O)C1=CCN(C2CC3CC(c4nn(C)c(N)c4C(=O)Nc4ccc(F)c(Cl)c4)CC3C2)CC1 (stereo not drawn) [Example 186] | 0.05 to 0.5 µM | –
4 | C=CCC1(O)CC2CC(c3nn(C)c(N)c3C(=O)Nc3ccc(F)c(Cl)c3)CC2C1 (stereo not drawn) [Example 2, 3-(5-Allyl-5-hydroxyoctahydropentalen-2-yl)-5-amino-N-(3-chloro-4-fluorophenyl)-1-methyl-1H-pyrazole-4-carboxamide] | < 0.01 µM | –
5 | Cn1nc(C(F)(F)F)cc1NCC1(O)CC2CC(c3nn(C)c(N)c3C(=O)Nc3ccc(F)c(Cl)c3)CC2C1 (single isomer, unassigned) [Example 203A] | < 0.01 µM | –
6 | Cn1nc(C2CC3CC(CNS(=O)(=O)C4CCC4)CC3C2)c(C(=O)Nc2ccc(F)c(Cl)c2)c1N (stereo not drawn) [Example 91, 5-Amino-N-(3-chloro-4-fluorophenyl)-3-(5-(cyclobutanesulfonamidomethyl)octahydropentalen-2-yl)-1-methyl-1H-pyrazole-4-carboxamide] | 0.01 to 0.05 µM | –
7 | 3-Amino-N-(3-chloro-4-fluorophenyl)-5-(5-hydroxy-5-(1-methyl-1H-imidazol-4-yl)octahydropentalen-2-yl)-2λ^2-pyrazole-4-carboxamide [Example 20] | – | < 0.01 µM
8 | Cn1nc(C2CC3CC(CNC(=O)CCCN4CCOCC4)CC3C2)c(C(=O)Nc2ccc(F)c(Cl)c2)c1N (stereo not drawn) [Example 72, 5-Amino-N-(3-chloro-4-fluorophenyl)-1-methyl-3-(5-((4-morpholinobutanamido)methyl)octahydropentalen-2-yl)-1H-pyrazole-4-carboxamide] | < 0.01 µM | –
9 | Cn1nc(C2CC3CC(CNC(=O)C(C)(C)C4CCNCC4)CC3C2)c(C(=O)Nc2ccc(F)c(Cl)c2)c1N (stereo not drawn) [Example 79, 5-Amino-N-(3-chloro-4-fluorophenyl)-1-methyl-3-(5-((2-methyl-2-(piperidin-4-yl)propanamido)methyl)octahydropentalen-2-yl)-1H-pyrazole-4-carboxamide] | 0.05 to 0.5 µM | –
10 | Cn1nc(C2CC3CC(CNC(=O)C4CC4)CC3C2)c(C(=O)Nc2ccc(F)c(Cl)c2)c1N (single isomer, unassigned) [Example 42, 5-Amino-N-(3-chloro-4-fluorophenyl)-3-(5-(cyclopropanecarboxamidomethyl)octahydropentalen-2-yl)-1-methyl-1H-pyrazole-4-carboxamide] | – | < 0.01 µM
11 | Cn1nc(C2CC3CC(O)(c4ccc(Cl)cc4)CC3C2)c(C(=O)Nc2ccc(F)c(Cl)c2)c1N (stereo not drawn) [Example 3, 5-Amino-N-(3-chloro-4-fluorophenyl)-3-(5-(4-chlorophenyl)-5-hydroxyoctahydropentalen-2-yl)-1-methyl-1H-pyrazole-4-carboxamide] | 0.01 to 0.05 µM | –
12 | Cn1nc(C2CC3CC(O)(C(F)(F)F)CC3C2)c(C(=O)Nc2ccc(F)c(Cl)c2)c1N (stereo not drawn) [Example 31, 5-Amino-N-(3-chloro-4-fluorophenyl)-3-(5-hydroxy-5-(trifluoromethyl)octahydropentalen-2-yl)-1-methyl-1H-pyrazole-4-carboxamide] | 0.01 to 0.05 µM | –
13 | Cc1ccc(S(=O)(=O)C(F)(F)C2(O)CC3CC(c4nn(C)c(N)c4C(=O)Nc4ccc(F)c(Cl)c4)CC3C2)cc1 (stereo not drawn) [Example 35, 5-Amino-N-(3-chloro-4-fluorophenyl)-3-(5-(difluoro(tosyl)methyl)-5-hydroxyoctahydropentalen-2-yl)-1-methyl-1H-pyrazole-4-carboxamide] | 0.01 to 0.05 µM | –
14 | Cn1cc(C(F)(F)F)nc1C1(O)CC2CC(c3nn(C)c(N)c3C(=O)Nc3ccc(F)c(Cl)c3)CC2C1 (stereo not drawn) [Example 163] | 0.01 to 0.05 µM | –
15 | Cn1nc(C2CC3CN(c4ncc(F)cn4)CC3C2)c(C(=O)Nc2ccc(F)c(Cl)c2)c1N (stereo not drawn) [Example 125, 5-Amino-N-(3-chloro-4-fluorophenyl)-3-(2-(5-fluoropyrimidin-2-yl)octahydrocyclopenta[c]pyrrol-5-yl)-1-methyl-1H-pyrazole-4-carboxamide] | 0.01 to 0.05 µM | –
16 | Cn1nc(C2CC3CC(CNC(=O)CCCCCN)CC3C2)c(C(=O)Nc2ccc(F)c(Cl)c2)c1N (stereo not drawn) [Example 81, 5-Amino-3-(5-((6-aminohexanamido)methyl)octahydropentalen-2-yl)-N-(3-chloro-4-fluorophenyl)-1-methyl-1H-pyrazole-4-carboxamide] | 0.05 to 0.5 µM | –
17 | Cn1nc(C2CC3CC(O)(c4ccc(F)cn4)CC3C2)c(C(=O)Nc2ccc(F)c(Cl)c2)c1N (stereo not drawn) [Example 168] | < 0.01 µM | –
18 | Cn1nc(C2CC3CN(C(=O)Nc4cccc(F)c4)CC3C2)c(C(=O)Nc2ccc(F)c(Cl)c2)c1N (stereo not drawn) [Example 122, 5-(5-Amino-4-((3-chloro-4-fluorophenyl)carbamoyl)-1-methyl-1H-pyrazol-3-yl)-N-(3-fluorophenyl)hexahydrocyclopenta[c]pyrrole-2(1H)-carboxamide] | 0.01 to 0.05 µM | –
19 | Cc1ccc(C2(O)CC3CC(c4nn(C)c(N)c4C(=O)Nc4ccc(F)c(Cl)c4)CC3C2)nc1 (stereo not drawn) [Example 17, 5-Amino-N-(3-chloro-4-fluorophenyl)-3-(5-hydroxy-5-(5-methylpyridin-2-yl)octahydropentalen-2-yl)-1-methyl-1H-pyrazole-4-carboxamide] | < 0.01 µM | –
20 | Cn1nccc1C1(O)CC2CC(c3nn(C)c(N)c3C(=O)Nc3ccc(F)c(Cl)c3)CC2C1 (stereo not drawn) [Example 26, 5-Amino-N-(3-chloro-4-fluorophenyl)-3-(5-hydroxy-5-(1-methyl-1H-pyrazol-5-yl)octahydropentalen-2-yl)-1-methyl-1H-pyrazole-4-carboxamide] | < 0.01 µM | –
21 | Cn1nc(C2CC3CC(CNC(=O)C4(C)COC4)CC3C2)c(C(=O)Nc2ccc(F)c(Cl)c2)c1N (stereo not drawn) [Example 64, 5-Amino-N-(3-chloro-4-fluorophenyl)-1-methyl-3-(5-((3-methyloxetane-3-carboxamido)methyl)octahydropentalen-2-yl)-1H-pyrazole-4-carboxamide] | < 0.01 µM | –
22 | Cn1ccnc1C1(O)CC2CC(c3nn(C)c(N)c3C(=O)Nc3ccc(F)c(Cl)c3)CC2C1 (stereo not drawn) [Example 19, 5-Amino-N-(3-chloro-4-fluorophenyl)-3-(5-hydroxy-5-(1-methyl-1H-imidazol-2-yl)octahydropentalen-2-yl)-1-methyl-1H-pyrazole-4-carboxamide] | < 0.01 µM | –
23 | Cn1nc(C2CC3CC(O)(CNc4cc(N)ncn4)CC3C2)c(C(=O)Nc2ccc(F)c(Cl)c2)c1N (single isomer, unassigned) [Example 205B] | – | 0.05 to 0.5 µM
24 | Cn1nc(C2CC3C=C(c4cc(N)nn4C4CC4)CC3C2)c(C(=O)Nc2ccc(F)c(Cl)c2)c1N (stereo not drawn) [Example 216] | 0.01 to 0.05 µM | –
